Test results taken from US11998540B2, “Compositions and methods for treating drug-tolerant glioblastoma” (THE GENERAL HOSPITAL CORPORATION, priority 2015, dated 2024).
Entries after “also recorded” stand apart in the source; their conditions may differ.

Legend:
GSC8^Per = assay: Cell growth assay (CELLTITER-GLO), dasatinib persisters GSC8^Per; type: cell-based, human; settings: for growth, 12 day treatment: GSC8^Per vs GSC8 naïve; for sensitivity / effect on cell growth (dose-response): 4 day treatment, GSC8^Per (>8 weeks dasatinib)
Method: (§1) Patient-derived GSC culture lines were maintained in Neurobasal medium (Life Technologies) supplemented with N2/B27, penicillin/streptomycin (Life Technologies), GlutaMAX (Life Technologies), recombinant human EGF (20 ng/mL, R & D systems), and recombinant human FGF2 (20 ng/mL, R & D systems). For drug persister cultures, fresh compound and media were replenished every 4-6 days.
(§2) Freshly dissociated single cell suspensions were plated (96-well) in triplicate or quadruplicate at 1,000 to 10,000 cells/well for testing. For 4 day growth assays, […]-GLO® Luminescent Cell Viability Assay (Promega) was added to wells and end point luminescence was measured (BioTek Synergy HT Platereader). For 12 day assays, 1× compound in media was added at day 4 and all wells were replated with fresh media and compound at day 8 before viability was measured at day 12. For each inhibitor, n=3 replicates were used for each concentration and was repeated in two to four independent experiments.

GSC8 [1] = assay: Cell growth assay ([…]-GLO), GSC8 naïve; type: cell-based, human; settings: for sensitivity / effect on cell growth (dose-response): 4 day treatment, GSC8 naïve
Method: as §1, §2

H3K4me3 = H3K4me3 ChIP-seq in GSC8; type: cell-based, human; settings: for H3K4me3 peak width / level: naïve GSCs, KDM5-C70 2.5 μM or GSKJ4 1.5 μM, 4 d
Method: Chromatin Immunoprecipitation (ChIP) was performed as previously described (Suvà et al., 2014). Briefly, formaldehyde-fixed cells were lysed and sheared (Branson […]) on wet ice. The sheared chromatin was cleared and incubated overnight at 4° C. with the following antibodies: H3K4me3 (Millipore, 07-473, Lot 2207275), H3K27me3 (Millipore, 07-449, lot 2382150), H3K27ac (Active Motif, 39133 lot 25812006), RBPJ (Abcam, ab25949, lot GR169397-1), and cleaved Notch1 (CST, 4147, lot #4). Antibody-chromatin complexes were immunoprecipitated with protein G magnetic Dynal beads (Life Technologies), washed, eluted, reverse crosslinked, and treated with RNAse A followed by proteinase K. ChIP DNA was purified using Ampure XP beads (Beckmann Coulter) and then used to prepare sequencing libraries for sequencing with the Next-Seq Illumina genome analyzer. Reads were aligned to hg19 using BWA (Li and Durbin, 2009) and identical ChIP-seq sequence reads were collapsed to avoid PCR duplicates. In order to avoid possible saturation biases, reads were downsampled to approximately similar numbers ( 20 million reads). Peaks were called using HOMER v4.6 (Heinz et al., 2010) using matched inputs with the following parameters: H3K4me3, -histone -tagThreshold 30; H3K27ac, -histone -tagThreshold 50; H3K27me3, -histone -size 3000 -[…] 0.1; Notch1 ICD, -factor; and RBPJ, -factor. […] Quantification of the H3K27me3 ChIP-seq signals, using fore- and background normalization, was essentially performed as outlined in (Zhu et al., 2013) with few modifications. To exclude genomic regions with potential copy number aberrations, read counts derived from whole cell extracts ChIP-seq within 5 kb genomic windows were quantified. Read counts were performed using interval overlap functions of the R package Genomic Ranges (Lawrence et al., 2013). To compute normalization constants, all genomic windows with read counts equal to 0 or greater than 3 standard deviations from the mean were excluded from the analysis. For a given H3K27me3 ChIP-seq data set, the background constant was estimated as the median of the read count distribution within 5 kb windows overlapping the 5% most highly expressed genes, as active genes are considered to be devoid of repressive chromatin modifications. The foreground signal was estimated as the median of the read count distribution within 5 kb windows centered around each called peak and subtracting the background signal. To quantify H3K27me3 signal within 5 kb regions of interest, the background signal was subtracted from the corresponding read count and the resulting value divided by the foreground signal. […] In order to quantify ChIP-seq intensities within genomic regions of different sizes (e.g. genes), the obtained normalization constants were scaled accordingly. […]

GSC8 PD0325901^Per = assay: Cell growth assay ([…]-GLO), MEK inhibitor persisters; type: cell-based, human; settings: 4 day treatment; persisters from sustained MEK inhibition
Method: as §1, §2

GSC8^12d = assay: Cell growth assay (CELLTITER-GLO), GSC8 treated 12 days with dasatinib; type: cell-based, human; settings: 4 day treatment
Method: as §1, §2

H3K27me3 = H3K27me3 ChIP-seq in GSC8; type: cell-based, human
Method: Chromatin Immunoprecipitation (ChIP) was performed as previously described (Suvà et al., 2014). Briefly, formaldehyde-fixed cells were lysed and sheared (Branson […]) on wet ice. The sheared chromatin was cleared and incubated overnight at 4° C. with the following antibodies: H3K4me3 (Millipore, 07-473, Lot 2207275), H3K27me3 (Millipore, 07-449, lot 2382150), H3K27ac (Active Motif, 39133 lot 25812006), RBPJ (Abcam, ab25949, lot GR169397-1), and cleaved Notch1 (CST, 4147, lot #4). Antibody-chromatin complexes were immunoprecipitated with protein G magnetic Dynal beads (Life Technologies), washed, eluted, reverse crosslinked, and treated with RNAse A followed by proteinase K. ChIP DNA was purified using Ampure XP beads (Beckmann Coulter) and then used to prepare sequencing libraries for sequencing with the Next-Seq Illumina genome analyzer. Reads were aligned to hg19 using BWA (Li and Durbin, 2009) and identical ChIP-seq sequence reads were collapsed to avoid PCR duplicates. In order to avoid possible saturation biases, reads were downsampled to approximately similar numbers ( 20 million reads). […] Quantification of the H3K27me3 ChIP-seq signals, using fore- and background normalization, was essentially performed as outlined in (Zhu et al., 2013) with few modifications. To exclude genomic regions with potential copy number aberrations, read counts derived from whole cell extracts ChIP-seq within 5 kb genomic windows were quantified. Read counts were performed using interval overlap functions of the R package Genomic Ranges (Lawrence et al., 2013). To compute normalization constants, all genomic windows with read counts equal to 0 or greater than 3 standard deviations from the mean were excluded from the analysis. For a given H3K27me3 ChIP-seq data set, the background constant was estimated as the median of the read count distribution within 5 kb windows overlapping the 5% most highly expressed genes, as active genes are considered to be devoid of repressive chromatin modifications. […]

KDMs = assay: qRT-PCR of KDM gene expression in GSC8; type: cell-based, human; settings: 48 hr drug treatment in GSC8
Method: Whole RNA was extracted from 1-3×10^6 cells using the QIAGEN RNeasy kit according to the manufacturer's protocol. For qRT-PCR, total RNA was reverse-transcribed into cDNA (High Capacity cDNA Reverse Transcriptase Kit, Applied Biosystems) and qRT-PCR amplification was performed using fast SYBR Green Master Mix (Life Technologies) with specific PCR primers for genes of interest and 18S as an endogenous control. Relative quantification for each target was performed using the comparative Ct method (Applied Biosystems). For RNA-seq library preparation, Poly(A)^+ RNA was enriched using magnetic oligo(dT)-beads (Life Technologies) and libraries were prepared as previously described (Gifford et al., 2013). Sequences for qRT-PCR primers used are listed at Table 3.

GSC8 [2] = assay: Flow cytometry for Ki67 and EdU incorporation in GSC8; settings: 1 μM

C[C@H](NC(=O)Cc1cc(F)cc(F)c1)C(=O)N[C@H]1N=C(c2ccccc2)c2ccccc2N(C)C1=O [Compound E]
growth, 12 day treatment (GSC8^Per): preferentially sensitive
growth, 12 day treatment (GSC8^Per; listed as Notch inhibitor (γ-secretase)): significantly reduced
growth, 12 day treatment (GSC8 [1]; 12 day treatment, naïve GSC8): little effect

CCOC(=O)CCNc1cc(N2CCc3ccccc3CC2)nc(-c2ccccn2)n1 [GSKJ4]
H3K4me3 peak width / level (H3K4me3): did not significantly increase H3K4me3
sensitivity / effect on cell growth (dose-response) (GSC8^Per): preferentially sensitive; also recorded: significantly compromised viability
sensitivity / effect on cell growth (dose-response) (GSC8 PD0325901^Per): preferentially sensitive
sensitivity / effect on cell growth (dose-response) (GSC8 [1]): well tolerated
sensitivity / effect on cell growth (dose-response) (GSC8^12d): preferentially sensitive; also recorded: significantly compromised viability
rescue of H3K27me3 loss associated with dasatinib treatment (H3K27me3; GSC8^12d, GSKJ4 1.5 μM, 8 d, after 4 days of dasatinib): rescued the dramatic H3K27me3 loss
effect on pre-existing H3K27me3 landscape (H3K27me3; naïve GSC8, 1.5 μM, 8 d): negligible effects

CCOC(=O)CCNc1cc(N2CCc3ccccc3CC2)nc(-c2cccnc2)n1 [GSKJ5]
sensitivity / effect on cell growth (dose-response) (GSC8^Per): no preferential sensitivity; also recorded: Negligible differential effects

CCOC(=O)c1ccnc(CNCC(=O)N(CC)CCN(C)C)c1 [KDM5-C70]
H3K4me3 peak width / level (H3K4me3): caused H3K4me3 peaks to expand; also recorded: H3K4me3 peak width increases
rescue of H3K4me3 reduction associated with dasatinib treatment (H3K4me3; with 4 day dasatinib): partially rescued; also recorded: significantly attenuated H3K4me3 reduction
sensitivity / effect on cell growth (dose-response) (GSC8^Per): subtle effects on proliferation
sensitivity / effect on cell growth (dose-response) (GSC8 [1]): subtle effects on proliferation
effect on dasatinib dose-response curve (GSC8 [1]; 4 day, GSC8 naïve simultaneously treated with KDM5-C70 2.5 μM vs vehicle): No significant effect
sensitivity / effect on cell growth (dose-response) (GSC8^12d): subtle effects on proliferation

O=C(NOC[C@H](O)CO)c1ccc(F)c(F)c1Nc1ccc(I)cc1F [PD0325901]
KDM gene expression (KDMs): KDM induction; also recorded: up-regulation of numerous KDMs
sensitivity / effect on cell growth (dose-response) (GSC8 [1]): differentially sensitive

CC1(COc2ccc3c(c2)ncn3-c2ccc3cccc(N4CCC(N)CC4)c3n2)COC1 [crenolanib]
sensitivity / effect on cell growth (dose-response) (GSC8^Per): relatively insensitive; also recorded: tolerated higher concentrations
sensitivity / effect on cell growth (dose-response) (GSC8 [1]): preferentially sensitive

Cc1nc(Nc2ncc(C(=O)Nc3c(C)cccc3Cl)s2)cc(N2CCN(CCO)CC2)n1 [dasatinib]
H3K4me3 at cell cycle-associated promoters (H3K4me3; short-term dasatinib treatment): reduced
sensitivity / effect on cell growth (dose-response) (GSC8^Per): relatively insensitive; also recorded: tolerated higher concentrations
cell cycle effect (Ki67 / EdU) (GSC8 [2]; 4 d): induced cell cycle arrest and G0 induction
Ki67^+ cells (GSC8 [2]; after 4 days of dasatinib, 93% in naïve): 17%
IC50 (GSC8 [1]; Homo sapiens, 96 h): ~10 nM
H3K27me3 peaks after drug treatment (H3K27me3; GSC8^12d, GSC8^Per, GSC8 PD0325901^Per): strongly reduced
